Values of other authors in patent publication US20160133992A1, “DRYING OF ELECTROLYTE MIXTURES CONTAINING ACIDS WITH MOLECULAR SIEVES” (BASF SE, priority 2013, published 2016).

Conditions: not given
For `CCCCC(CCO)S(=O)(=O)O` (stereo not shown) [1-Butyl-gamma-hydroxy propane sulfonic acid], the pKa is listed as “below 4”.
In the case of `CCC(CCCO)S(=O)(=O)O` (stereo not shown) [1-Ethyl-4-hydroxy-1-butane sulfonic acid], the pKa is given as “below 4”.
In the case of `CCC(CCO)S(=O)(=O)O` (stereo not shown) [1-Ethyl-gamma-hydroxy propane sulfonic acid], the pKa is listed as “below 4”.
For `CC(CCCO)S(=O)(=O)O` (stereo not shown) [1-Methyl-4-hydroxy-1-butane sulfonic acid], the pKa is given as “below 4”.
In the case of `CC(CCO)S(=O)(=O)O` (stereo not shown) [1-Methyl-gamma-hydroxy propane sulfonic acid], the pKa is listed as “below 4”.
For `CCCCCCCCC(CCCO)S(=O)(=O)O` (stereo not shown) [1-Octyl-4-hydroxy-1-butane sulfonic acid], the pKa is given as “below 4”.
In the case of `CCCC(CCO)S(=O)(=O)O` (stereo not shown) [1-Propyl-gamma-hydroxy propane sulfonic acid], the pKa is given as “below 4”.
In the case of `O=S(=O)(O)CCCCO` [4-hydroxy-1-butane sulfonic acid], the pKa is listed as −1,7.
For `O=S(=O)(O)CCCCCO` [5-hydroxy-1-pentane sulfonic acid], the pKa is given as “below 4”.

Same assay, conditions: listed as compound of formula (b)
For `O=S(=O)(O)CCCO` [gamma-hydroxy propane sulfonic acid], the pKa is listed as −1.49.
